Experimental data published in PubChem BioAssay (NCI).
Values joined by “and” are separate entries in the source; they are usually repeats but may differ in a detail not shown here. Identical values can stand only once.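 Protocol summary: plate cells (96-well), add compound at 5 concentrations, incubate 48 h, interpolate endpoints linearly. GI50 is the concentration that inhibits growth by half. TGI marks complete inhibition of growth.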

Legend:
Assay in all cases: growth of human tumour cells (NCI), 48 h
[1] = system: HCT-15 colon
[2] = system: EKVX NSCLC
[3] = system: SK-OV-3 ovarian
[4] = system: BT-549 breast
[5] = system: SK-MEL-2 melanoma
[6] = system: OVCAR-4 ovarian
[7] = system: MDA-MB-435
[8] = system: IGROV1 ovarian
[9] = system: MCF7 breast
[10] = system: NCI-H226 lung

| Structure (SMILES) | GI50 [1] | TGI [1] | GI50 [2] | TGI [2] | GI50 [3] | TGI [3] | GI50 [4] | TGI [4] | GI50 [5] | TGI [5] | GI50 [6] | TGI [6] | GI50 [7] | TGI [7] | GI50 [8] | TGI [8] | GI50 [9] | TGI [9] | GI50 [10] | TGI [10] |
| --- | --- | --- | --- | --- | --- | --- | --- | --- | --- | --- | --- | --- | --- | --- | --- | --- | --- | --- | --- | --- |
| Nc1nccc(-c2c(-c3ccc(F)cc3)ncn2C2CCNCC2)n1 | > 25 µM and 6.43 µM | > 25 µM | > 25 µM and 5.01 µM | > 25 µM and 24.8 µM | 3.34 µM and 5.45 µM | > 25 µM | 17.2 µM and 12 µM | > 25 µM | 13.6 µM and 3.64 µM | > 25 µM and 13 µM | 1.86 µM and 2.77 µM | > 25 µM and 13.1 µM | 2.87 µM and 4.17 µM | > 25 µM | 5.13 µM and 4.73 µM | > 25 µM | 0.62 µM and 0.827 µM | > 17.2 µM | 1.27 µM and 3.97 µM | > 21.2 µM and 20.1 µM |
| CCN(CCCN(C)C)Cc1cc(I)cc(C)c1O | 21.5 µM | 49.4 µM | 26.5 µM | > 100 µM | 35.3 µM | > 100 µM | 12.7 µM | 27.9 µM | 19.4 µM | 37.4 µM | 48.7 µM | > 100 µM | 15.7 µM | 31.6 µM | 19.8 µM | 45.4 µM | 17.4 µM | 35.8 µM | 38.8 µM | > 100 µM |
| OCCN1CCN(CCCN2c3ccccc3Sc3ccc(Cl)cc32)CC1 | 2.39 µM | 6.13 µM | 3.43 µM | 17.7 µM | 3.04 µM | 10.2 µM | 4.49 µM | 16.6 µM | 2.03 µM | 4.04 µM | 4.49 µM | 17.4 µM | 1.72 µM | 3.33 µM | 3.12 µM | 12.2 µM | 2.02 µM | 3.96 µM | 5.26 µM | 19.2 µM |
| CCSCC1CC(O)(c2ccccc2)CC(c2ccc(F)cc2)O1 (stereo not given) | 2.11 µM | 5.49 µM | 2.13 µM | 6.04 µM | 2.62 µM | 7.39 µM | 1.6 µM | 3.45 µM | 1.79 µM | 3.53 µM | 2.69 µM | 11.5 µM | 2.04 µM | 4.36 µM | 2.12 µM | 5.75 µM | 2.79 µM | 8.98 µM |  |  |
| CCCCCCCCCCCCOC1C(CNC(=O)C2OC3OC(C)(C)OC3C2NC(=O)Nc2ccc(CC(=O)OC)cc2)OC2OC(C)(C)OC21 (stereo not given) | > 100 µM | > 100 µM | > 100 µM | > 100 µM | > 100 µM | > 100 µM | > 100 µM | > 100 µM | > 100 µM | > 100 µM | > 100 µM | > 100 µM | > 100 µM | > 100 µM | > 90.9 µM | > 100 µM | > 100 µM | > 100 µM | > 100 µM | > 100 µM |
| Cc1cc(O)c(=O)cc2c1C[C@H]1CC(C)(C)/C=C/C[C@]3(C)Oc4cc(=O)c(O)cc(C)c4C[C@H]3C[C@H](O)[C@@]1(C)O2 | < 0.01 µM | > 100 µM | 0.0172 µM | > 46.2 µM | 0.0181 µM | 0.412 µM | 0.0319 µM | 4.55 µM |  |  | 0.0172 µM | > 100 µM | < 0.017 µM |  | 0.025 µM | 7.46 µM | < 0.01 µM | > 100 µM | 0.0541 µM | 13.6 µM |
